Test results reported in US6696457B1, “Morphinoid compounds” (SmithKline Beecham p.l.c., priority 1999, dated 2004).
Where a name gives a salt, the structure may show the parent alone.

Key:
[1] = metabolic stability: intrinsic clearance in liver microsomes; type: in vitro ADME, human; conditions: 0.5 uM compound, 0.5 mg/ml microsomal protein, 37° C., 30 minutes, NADPH regenerating system
Procedure: The metabolic stability of the compounds of the invention was determined in the following manner: the compounds were incubated (37° C.) at 0.5 uM over 30 minutes with microsomal protein (at a concentration of 0.5 mg/ml) and an NADPH regenerating system (cofactor); the incubation volume was made up to a total of 1 mL with 50 mM potassium phosphate buffer (pH 7.4).
All of the incubation components, apart from cofactor, were pre-incubated for approximately 5 minutes then the reaction was started by the addition of cofactor solution. 50 uL samples were removed from the incubation at 3 minute intervals and placed into 200 uL of acetonitrile (containing an Internal Standard) to precipitate the microsomal protein and terminate the reaction.
All samples were analysed by LC/MS for parent compound and Internal Standard (I.S) and the results calculated as peak area ratios: compound/I.S.
The peak area ratios were plotted against time and intrinsic clearance values were calculated from the fitted exponential decay curve:
CLint (mL/min/g liver)=(k·V·microsomal yield)/[protein] […]
k=rate constant from the exponential decay curve
V=incubation volume (1 mL) microsomal yield=standard microsomal protein yield from 1 g liver (52.5 mg) [protein]=protein concentration in each incubation (0.5 mg/mL); a solution containing 0.5 uM of the compound under study was incubated with 0.5 mg of liver microsomal protein over 30 min at 37° C. Samples were taken, protein precipitated with acetonitrile and centrifuged prior HPLC-MS analysis.

[2] = in vivo clearance and absolute bioavailability
[3] = molecular target: T1, human delta opioid receptor (h-DOR/CHO) (Homo sapiens, UniProt P41143); assay: cAMP bioassay: inhibition of forskolin-stimulated cAMP in h-DOR/CHO cells; type: cell-based
T1 construct: expressed in transfected cells
Procedure: The delta agonistlantagonist activity of the compounds of the present invention is determined in the cAMP bioassay in CHO cell lines stably expressing the human delta opioid receptor (h-DOR/CHO).
For the cAMP assay whole h-DOR/CHO cells were incubated with test compounds in Krebs-Ringer 200 mM, buffered with HEPES, containing (mM): NaCl (125), KCl (5), KH2PO4 (0.4), MgSO4 (1.2), CaCl2 (1.2), NaHCO3(25), glucos (12) and IBMX (1). Cells were treated with forskolin […] to stimulate cAMP synthesis.
The cAMP content was determined using a double antibody [^125I]-cAMp radioimmunoassay (Amersham RPA 509). The data were normalised to protein content.

T1 sequence (P41143 whole entry): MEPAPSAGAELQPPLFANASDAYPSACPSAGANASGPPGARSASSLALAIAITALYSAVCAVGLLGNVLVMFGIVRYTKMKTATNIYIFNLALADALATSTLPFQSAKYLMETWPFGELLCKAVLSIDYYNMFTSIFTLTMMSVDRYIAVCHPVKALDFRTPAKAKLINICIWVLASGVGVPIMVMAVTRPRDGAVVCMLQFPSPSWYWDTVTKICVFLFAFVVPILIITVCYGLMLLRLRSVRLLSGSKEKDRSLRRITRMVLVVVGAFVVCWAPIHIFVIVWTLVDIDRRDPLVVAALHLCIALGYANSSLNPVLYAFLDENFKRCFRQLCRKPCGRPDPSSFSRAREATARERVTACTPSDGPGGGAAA

| Compound | in vitro Clearance (human microsomes) CL [1] | also measured |
| --- | --- | --- |
| CCN(CC)C(=O)c1[nH]c2c(c1C)C[C@@]1(O)[C@H]3Cc4ccccc4[C@@]1(CCN3)C2 [Example 3, [10R,4bR-(4b beta,9a beta)]-7-(N,N-diethyl)aminocarbonyl-8-methyl-4b,5,9,9a, 10,11-hexahydro-9a-hydroxy-(6H)-10,4b-(iminoethano)phenanthro[3,2-b]pyrrole] | 0.8 ml/min/g liver | in vivo Clearance CL [2]: 27 ± 2 mL/min/kg; in vivo Absolute bioavailability F ipv ([2]; ipv): 60 ± 7% |
| Cc1c(C(=O)N(Cc2ccccc2)C(C)C)[nH]c2c1C[C@@]1(O)[C@H]3Cc4ccccc4[C@@]1(CCN3)C2 (as salt: hydrochloride) [Example 2, [10R,4bR-(4b beta,9a beta)]-7-[(N-benzyl-N-isopropyl)aminocarbonyl]-8-methyl-4b,5,9,9a, 10,11-hexahydro-9a-hydroxy-(6H)-10,4b-(iminoethano)phenanthro-[3,2-b]pyrrole] | – | melting point: > 250 °C |
| Cc1c2c(n(C)c1C(=O)N(Cc1ccccc1)C(C)C)CC13CCNC(Cc4ccccc41)C3(O)C2 (stereo not drawn) [Example 10, [10R,4bS-(4b beta,9a beta)]-7-(N-benzyl-N-isopropyl)aminocarbonyl-6,8-dimethyl-4b,5,9,9a, 10,11-hexahydro-9a-hydroxy-(6H)-10,4b-(iminoethano)-phenanthro[3,2-b]pyrrole] | 5.2 ml/min/g liver | – |
| Cc1c(C(=O)N(C(C)C)C(C)C)[nH]c2c1CC1(O)C3Cc4ccccc4C1(CCN3)C2 (stereo not drawn) [Example 1, [10R,4bR-(4b beta,9a beta)]-7-(N,N-diisopropyl)aminocarbonyl-8-methyl-4b,5,9,9a, 10,11-hexahydro-9a-hydroxy-(6H)-10,4b-(iminoethano)phenanthro[3,2-b]pyrrole] | 1.3 ml/min/g liver | – |
| CCN(Cc1ccccc1)C(=O)c1c(C)c2c(n1C)CC13CCNC(Cc4ccccc41)C3C2 (stereo not drawn) [Example 11, [10R,4bS-(4b beta,9a beta)]-7-(N-ethyl-N-benzyl)aminocarbonyl-6,8-dimethyl-4b,5,9,9a,10,11-hexahydro-(6H)-10-,4b-(iminoethano)phenanthro[3,2-b]pyrrole] | 13.0 ml/min/g liver | – |
| CCN(C(=O)c1[nH]c2c(c1C)C[C@@]1(O)[C@H]3Cc4ccccc4[C@@]1(CCN3)C2)c1ccccc1 [Example 8, [10R,4bR-(4b beta,9a beta)]-7-[(N-phenyl-N-ethyl)aminocarbonyl]-4b,5,9,9a, 10,11-hexahydro-9a-hydroxy-(6H)-8-methyl-10,4(iminoethano)-phenanthro[3,2-b]pyrrole] | 5.9 ml/min/g liver | – |
| Cc1c(C(=O)N2CCc3ccccc3C2)[nH]c2c1CC1(O)C3Cc4ccccc4C1(CCN3)C2 (stereo not drawn) [Example 6, [10R,4bR-(4b beta,9a beta)]-7-(1,2,3,4-tetrahydroisoquinolin-2-yl)carbonyl-8-methyl-4b,5,9,9a, 10,11-hexahydro-9a-hydroxy-(6H)-1 0,4b-(iminoethano)phenanthro[3,2-b]pyrrole] | <0.6 ml/min/g liver | – |
| Cc1c(C(=O)CC(C)C)[nH]c2c1C[C@@]1(O)[C@H]3Cc4ccccc4[C@@]1(CCN3)C2 [Example 7, [10R,4bR-(4b beta,9a beta)]-7-isobutylcarbonyl-8-methyl4b,5,9,9a,10,11-hexahydro-9a-hydroxy-(6H)-10,4b-(iminoethano)phenanthro[3,2-b]pyrrole] | <0.6 ml/min/g liver | melting point: 170 to 175 °C |
| [10R,4bR-(4bb,9ab)]-7-(N,N-diisopropyl)aminocarbonyl-8,14-dimethyl4b,5,9,9a,10,11-hexahydro9a-hydroxy-(6H)-10,4b-(iminoethano)phenanthro[3,2-b]pyrrole. [Example 19] | 5.7 ml/min/g liver | – |
| Cc1c(C(=O)N2CCc3ccccc3C2)[nH]c2c1CC1(O)C3Cc4ccccc4C1(CCN3C)C2 (stereo not drawn) [Example 21, [10R,4bR-(4b beta,9a beta)]-7-(1,2,3,4-tetrahydroisoquinolin-2-yl)carbonyl-8,14-dimethyl-4b,5,9,9a,10,11-hexahydro-9a-hydroxy-(6H)-10,4b-(iminoethano)phenanthro-[3,2-b]pyrrole] | 6.0 ml/min/g liver | – |
| Cc1c(C(=O)N(Cc2ccccc2)C(C)C)[nH]c2c1CC1C3Cc4ccccc4C1(CCN3)C2 (stereo not drawn) [Example 4, [10R,4bS-(4b beta,9a beta)]-7-(N-isopropyl-N-benzyl)aminocarbonyl-8-methyl-4b,5,9,9a, 10,11-hexahydro-(6H)-10-,4b-(iminoethano)phenanthro[3,2-b]pyrrole] | 3.3 ml/min/g liver | – |
| [10R,4bS-(4b beta,9a beta)]-7-(N-ethyl-N-phenyl)aminocarbonyl-8-methyl-4b,5,9,9a, 10,11-hexahydro-(6H)-10,4b-(iminoethano)phenanthro[3,2-b]pyrrole [Example 9] | 4.5 ml/min/g liver | – |
| CCN(Cc1ccccc1)C(=O)c1[nH]c2c(c1C)CC1(O)C3Cc4ccccc4C1(CCN3)C2 (stereo not drawn) [Example 5, [10R,4bR-(4b beta,9a beta)]-7-(N-benzyl-N-ethyl)aminocarbonyl-8-methyl-4b,5,9,9a, 10,11-hexahydro-9a-hydroxy-(6H)-10,4b-(iminoethano)phenanthro[3,2-b]pyrrole] | 2.0 ml/min/g liver | – |
| Cc1c(C(=O)N(Cc2ccccc2)C(C)C)[nH]c2c1C[C@@]1(O)[C@H]3Cc4ccccc4[C@@]1(CCN3)C2 [Example 2, [10R,4bR-(4b beta,9a beta)]-7-[(N-benzyl-N-isopropyl)aminocarbonyl]-8-methyl-4b,5,9,9a, 10,11-hexahydro-9a-hydroxy-(6H)-10,4b-(iminoethano)phenanthro-[3,2-b]pyrrole] | – | IC50 [3]: 1.15 nM; antagonism of the agonist activity by the selective delta antagonist naltrindole ([3]; naltrindole 100 nM, h-DOR/CHO cells): completely antagonised |
